Data from PubChem BioAssay AID2060614 (Molecular Pharmacology Branch, DTP, NCI, 2025).

System: 598228-144-R-J1-PDC complex spheroids, viability
Assay: Anticancer human tumor 598228-144-R-J1-PDC patient-derived serous endometrial adenocarcinoma cell line growth inhibition [CLK]
Settings: for IC50: curve of first compound; for viability, T/C: stronger effect = lower value
Method in brief: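 Multi-cell-type spheroids combined patient-derived tumor cells with HUVEC endothelial cells and human mesenchymal stem cells. Paired agents were dosed in half-log steps down from about clinical Cmax, or from 10 microM where Cmax was unknown.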

[1] = second compound 0.0316 µM, first compound 0.0316 µM
[2] = second compound 0.0316 µM, first compound 0.1 µM
[3] = second compound 0.0316 µM, first compound 0.316 µM
[4] = second compound 0.0316 µM, first compound 1 µM
[5] = second compound 0.0316 µM, first compound 3.16 µM
[6] = second compound 0.0316 µM, first compound 10 µM
[7] = second compound 0.1 µM, first compound 0.0316 µM
[8] = second compound 0.1 µM, first compound 0.1 µM
[9] = second compound 0.1 µM, first compound 0.316 µM
[10] = second compound 0.1 µM, first compound 1 µM
[11] = second compound 0.1 µM, first compound 3.16 µM
[12] = second compound 0.1 µM, first compound 10 µM
[13] = second compound 0.316 µM, first compound 0.0316 µM
[14] = second compound 0.316 µM, first compound 0.1 µM
[15] = second compound 0.316 µM, first compound 0.316 µM
[16] = second compound 0.316 µM, first compound 1 µM
[17] = second compound 0.316 µM, first compound 3.16 µM
[18] = second compound 0.316 µM, first compound 10 µM
[19] = second compound 1 µM, first compound 0.0316 µM
[20] = second compound 1 µM, first compound 0.1 µM
[21] = second compound 1 µM, first compound 0.316 µM
[22] = second compound 1 µM, first compound 1 µM
[23] = second compound 1 µM, first compound 3.16 µM
[24] = second compound 1 µM, first compound 10 µM
[25] = second compound 3.16 µM, first compound 0.0316 µM
[26] = second compound 3.16 µM, first compound 0.1 µM
[27] = second compound 3.16 µM, first compound 0.316 µM
[28] = second compound 3.16 µM, first compound 1 µM
[29] = second compound 3.16 µM, first compound 3.16 µM
[30] = second compound 3.16 µM, first compound 10 µM
[31] = second compound 10 µM, first compound 0.0316 µM
[32] = second compound 10 µM, first compound 0.1 µM
[33] = second compound 10 µM, first compound 0.316 µM
[34] = second compound 10 µM, first compound 1 µM
[35] = second compound 10 µM, first compound 3.16 µM
[36] = second compound 10 µM, first compound 10 µM
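Also: spheroids exposed to compounds for seven days before readout.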
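For viability, T/C in this document: 100% = DMSO vehicle control wells.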

O=C(c1cc(Cc2n[nH]c(=O)c3ccccc23)ccc1F)N1CCN(C(=O)C2CC2)CC1 + CN1CCN(c2cc(C(=O)Nc3cc4cc(-c5cnn(C)c5)ccc4cn3)ccn2)CC1
IC50 (second compound 0.0316 µM): > 10000 nM
IC50 (second compound 0.1 µM): > 10000 nM
IC50 (second compound 0.316 µM): < 31.6 nM
IC50 (second compound 1 µM): < 31.6 nM
IC50 (second compound 3.16 µM): < 31.6 nM
IC50 (second compound 10 µM): < 31.6 nM
viability, T/C [1]: 123%
viability, T/C [2]: 120%
viability, T/C [3]: 114%
viability, T/C [4]: 118%
viability, T/C [5]: 116%
viability, T/C [6]: 103%
viability, T/C [7]: 130%
viability, T/C [8]: 119%
viability, T/C [9]: 107%
viability, T/C [10]: 126%
viability, T/C [11]: 125%
viability, T/C [12]: 131%
viability, T/C [13]: 16.7%
viability, T/C [14]: 17.2%
viability, T/C [15]: 18.8%
viability, T/C [16]: 14.9%
viability, T/C [17]: 13.7%
viability, T/C [18]: 14.9%
viability, T/C [19]: 1.51%
viability, T/C [20]: 1.3%
viability, T/C [21]: 2.76%
viability, T/C [22]: 1.57%
viability, T/C [23]: 2.8%
viability, T/C [24]: 3.04%
viability, T/C [25]: 1.72%
viability, T/C [26]: 1.59%
viability, T/C [27]: 1.74%
viability, T/C [28]: 2.04%
viability, T/C [29]: 2.75%
viability, T/C [30]: 4.75%
viability, T/C [31]: 0.94%
viability, T/C [32]: 0.9%
viability, T/C [33]: 1.84%
viability, T/C [34]: 1.05%
viability, T/C [35]: 1.89%
viability, T/C [36]: 3.42%

CC1COCCN1c1cc(C2(S(C)(=N)=O)CC2)nc(-c2ccnc3[nH]ccc23)n1 (stereo not drawn) + CNC(=O)c1ccc(Nc2nc(OC3CCCC3)c3c(-c4ccc5nc(C)oc5c4)c[nH]c3n2)c(OC)c1
IC50 (second compound 0.0316 µM): 9480 nM
IC50 (second compound 0.1 µM): > 10000 nM
IC50 (second compound 0.316 µM): > 10000 nM
IC50 (second compound 1 µM): 6790 nM
IC50 (second compound 3.16 µM): 3300 nM
IC50 (second compound 10 µM): 2530 nM
viability, T/C [1]: 101%
viability, T/C [2]: 107%
viability, T/C [3]: 100%
viability, T/C [4]: 97.3%
viability, T/C [5]: 73.3%
viability, T/C [6]: 48.9%
viability, T/C [7]: 105%
viability, T/C [8]: 107%
viability, T/C [9]: 115%
viability, T/C [10]: 104%
viability, T/C [11]: 68.5%
viability, T/C [12]: 57.5%
viability, T/C [13]: 100%
viability, T/C [14]: 91.3%
viability, T/C [15]: 112%
viability, T/C [16]: 89%
viability, T/C [17]: 76.2%
viability, T/C [18]: 59.7%
viability, T/C [19]: 110%
viability, T/C [20]: 103%
viability, T/C [21]: 90.7%
viability, T/C [22]: 78.7%
viability, T/C [23]: 69.1%
viability, T/C [24]: 41.1%
viability, T/C [25]: 89.3%
viability, T/C [26]: 90.9%
viability, T/C [27]: 80.4%
viability, T/C [28]: 72.8%
viability, T/C [29]: 50.6%
viability, T/C [30]: 24.6%
viability, T/C [31]: 79.6%
viability, T/C [32]: 77.5%
viability, T/C [33]: 85.6%
viability, T/C [34]: 64.6%
viability, T/C [35]: 46.9%
viability, T/C [36]: 20.6%

CCc1c2c(nc3ccc(O)cc13)-c1cc3c(c(=O)n1C2)COC(=O)[C@]3(O)CC + CNC(=O)c1ccc(Nc2nc(OC3CCCC3)c3c(-c4ccc5nc(C)oc5c4)c[nH]c3n2)c(OC)c1
IC50 (second compound 0.0316 µM): 51.5 nM
IC50 (second compound 0.1 µM): 56.4 nM
IC50 (second compound 0.316 µM): 100 nM
IC50 (second compound 1 µM): 61.5 nM
IC50 (second compound 3.16 µM): 54.2 nM
IC50 (second compound 10 µM): 33.2 nM
viability, T/C (second compound 0.0316 µM, first compound 0.00316 µM): 91%
viability, T/C (second compound 0.0316 µM, first compound 0.01 µM): 77.3%
viability, T/C [1]: 65.9%
viability, T/C [2]: 30.8%
viability, T/C [3]: 14.4%
viability, T/C [4]: 6.44%
viability, T/C (second compound 0.1 µM, first compound 0.00316 µM): 106%
viability, T/C (second compound 0.1 µM, first compound 0.01 µM): 84.5%
viability, T/C [7]: 65.2%
viability, T/C [8]: 38.5%
viability, T/C [9]: 16.2%
viability, T/C [10]: 14.9%
viability, T/C (second compound 0.316 µM, first compound 0.00316 µM): 124%
viability, T/C (second compound 0.316 µM, first compound 0.01 µM): 111%
viability, T/C [13]: 97%
viability, T/C [14]: 48.3%
viability, T/C [15]: 21.6%
viability, T/C [16]: 10.5%
viability, T/C (second compound 1 µM, first compound 0.00316 µM): 117%
viability, T/C (second compound 1 µM, first compound 0.01 µM): 95%
viability, T/C [19]: 73.8%
viability, T/C [20]: 33.2%
viability, T/C [21]: 16.3%
viability, T/C [22]: 10.8%
viability, T/C (second compound 3.16 µM, first compound 0.00316 µM): 108%
viability, T/C (second compound 3.16 µM, first compound 0.01 µM): 95.9%
viability, T/C [25]: 63.9%
viability, T/C [26]: 32.9%
viability, T/C [27]: 17.3%
viability, T/C [28]: 8.19%
viability, T/C (second compound 10 µM, first compound 0.00316 µM): 110%
viability, T/C (second compound 10 µM, first compound 0.01 µM): 85.9%
viability, T/C [31]: 49.3%
viability, T/C [32]: 27.5%
viability, T/C [33]: 13.8%
viability, T/C [34]: 9.24%

Nc1ccccc1NC(=O)c1ccc(CNC(=O)OCc2cccnc2)cc1 + CN1CCN(c2cc(C(=O)Nc3cc4cc(-c5cnn(C)c5)ccc4cn3)ccn2)CC1
IC50 (second compound 0.0316 µM): 1780 nM
IC50 (second compound 0.1 µM): 2170 nM
IC50 (second compound 0.316 µM): < 31.6 nM
IC50 (second compound 1 µM): < 31.6 nM
IC50 (second compound 3.16 µM): < 31.6 nM
IC50 (second compound 10 µM): < 31.6 nM
viability, T/C [1]: 125%
viability, T/C [2]: 114%
viability, T/C [3]: 93.4%
viability, T/C [4]: 68.2%
viability, T/C [5]: 32.4%
viability, T/C [6]: 3.45%
viability, T/C [7]: 121%
viability, T/C [8]: 123%
viability, T/C [9]: 97.2%
viability, T/C [10]: 71.3%
viability, T/C [11]: 41%
viability, T/C [12]: 0.32%
viability, T/C [13]: 17.1%
viability, T/C [14]: 14.1%
viability, T/C [15]: 13%
viability, T/C [16]: 10.7%
viability, T/C [17]: 1.75%
viability, T/C [18]: 0.23%
viability, T/C [19]: 1.29%
viability, T/C [20]: 1.3%
viability, T/C [21]: 1.11%
viability, T/C [22]: 1.01%
viability, T/C [23]: 1.46%
viability, T/C [24]: 0.57%
viability, T/C [25]: 1.49%
viability, T/C [26]: 3.39%
viability, T/C [27]: 1.88%
viability, T/C [28]: 1.93%
viability, T/C [29]: 1.66%
viability, T/C [30]: 0.89%
viability, T/C [31]: 0.8%
viability, T/C [32]: 0.77%
viability, T/C [33]: 1.17%
viability, T/C [34]: 1.13%
viability, T/C [35]: 2.8%
viability, T/C [36]: 2.51%
